Test results as given in patent US6451804B1, “Heteroalkylamino-substituted bicyclic nitrogen heterocycles” (Syntex (U.S.A.) LLC, priority 1999, dated 2002).

How the values were obtained:
p38 MAP kinase = molecular target: T1, p38 MAP kinase (Homo sapiens, UniProt Q16539); assay: In vitro p38 MAP kinase inhibition assay (transfer of γ-phosphate from γ-33P-ATP to Myelin Basic Protein); assay type: biochemical; conditions: phosphorylated recombinant p38 MAP kinase, MBP substrate
T1 construct: made in house; host or cells: E. coli (co-expressed with SEK-1 and MEKK)
Method: This example illustrates a p38 (MAP) kinase in vitro assay useful for evaluating the compounds of the present invention.
The p38 MAP kinase inhibitory activity of compounds of this invention in vitro was determined by measuring the transfer of the γ-phosphate from γ-^33P-ATP by p38 kinase to Myelin Basic Protein (MBP), using a minor modification of the method described in Ahn, et al., J. Biol. Chem. 266:4220-4227 (1991).
The phosphorylated form of the recombinant p38 MAP kinase was co-expressed with SEK-1 and MEKK in E. Coli (see, Khokhlatchev, et al., J. Biol. Chem. 272:11057-11062 (1997)) and then purified by affinity chromatography using a Nickel column.
The phosphorylated p38 MAP kinase was diluted in kinase buffer (20 mM 3-(N-morpholino)propanesulfonic acid, pH 7.2, 25 mM β-glycerol phosphate, 5 mM ethylene glycol-bis(beta-aminoethyl ether)-N,N,N′,N′-tetraacetic acid, 1 mM sodium ortho-vanadate, 1 mM dithiothreitol, 40 mM magnesium chloride). Test compound dissolved in DMSO or only DMSO (control) was added and the samples were incubated for 10 minutes at 30° C. The kinase reaction was initiated by the addition of a substrate cocktail containing MBP and γ-^33P-ATP. After incubating for an additional 20 minutes at […], the reaction was terminated by adding 0.75% phosphoric acid. The phosphorylated MBP was then separated from the residual γ-^33P-ATP using a phosphocellulose membrane (Millipore, Bedfrod, Mass.) and quantitated using a scintillation counter (Packard, Meriden, Conn.).

T1 sequence (Q16539 whole entry): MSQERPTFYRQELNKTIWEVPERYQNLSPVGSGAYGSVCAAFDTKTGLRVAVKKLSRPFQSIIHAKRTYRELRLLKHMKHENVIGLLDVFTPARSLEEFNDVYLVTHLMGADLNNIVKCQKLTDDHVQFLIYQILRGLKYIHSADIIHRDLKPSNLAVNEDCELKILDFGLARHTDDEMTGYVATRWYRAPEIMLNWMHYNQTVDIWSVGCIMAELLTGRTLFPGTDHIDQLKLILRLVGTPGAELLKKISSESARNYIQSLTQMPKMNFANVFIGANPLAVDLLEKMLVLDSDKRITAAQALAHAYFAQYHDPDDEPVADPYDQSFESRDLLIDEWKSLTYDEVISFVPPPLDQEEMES

Compound	melting point [°C]	IC50 (p38 MAP kinase) [µM]
O=C1N(c2ccccc2Cl)Cc2cnc(N[C@H]3CC[C@H](O)CC3)nc2N1CC(F)(F)F [Compound 3-60, 3-(2-chlorophenyl)-7-(trans-4-hydroxycyclohexylamino)-1-(2,2,2-trifluoroethyl)-3,4-dihydropyrimido[4,5-d]pyrimidin-2(1H)-one]	130 to 133.5	< 10
Cc1ccccc1N1Cc2cnc(NC(C)(C)CO)nc2N(C)C1=O [Compound 3-12]	–	< 10
Cc1ccccc1N1Cc2cnc(NCC(C)(C)CN)nc2N(C)C1=O [Compound 3-3]	–	< 10

Second part, the compound after the results:

melting point [°C]	IC50 (p38 MAP kinase) [µM]	Compound
183 to 235	< 10	CN1C(=O)N(c2ccccc2Cl)Cc2cnc(NCC(C)(C)CN)nc21 [Compound 3-1]
–	< 10	CCOC(=O)N1CCC(Nc2ncc3c(n2)NC(=O)N(c2ccccc2Cl)C3)CC1 [Compound 2-28, 3-(2-chlorophenyl)-7-(1-ethoxycarbonylpiperidin-4-ylamino)-3,4-dihydropyrimido[4,5-d]pyrimidin-2(1H)-one]
